In paper PMC2914574 (Journal of neurochemistry, 2010):
Where two headings read alike, the source gives them in different places. Marks after values point to notes of the source that are not given here.

How the values were obtained:
wild-type hDAT = wild-type hDAT (Homo sapiens, UniProt Q01959); test: displacement of intact-cell [3H]CFT binding, wild-type hDAT; settings: for fold increase in binding affinity over monovalent DA: relative to dopamine; for Ki: inhibition of [3H]CFT binding, intact HEK-hDAT cells, 21°C, 15 min
WT hDAT [1] = molecular target: T1, WT hDAT (Homo sapiens, UniProt Q01959); test: inhibition of [3H]DA uptake in intact HEK-hDAT cells; type: cell-based; settings: for Uptake Kapp, WT: inhibition of [3H]DA uptake, intact HEK-hDAT cells, 5 min; for Kapp / Ki ratio: uptake Kapp over binding Ki at WT hDAT
hDAT W84L mutant = molecular target: T2, hDAT W84L mutant (Homo sapiens, UniProt Q01959, W84L); test: displacement of intact-cell [3H]CFT binding, W84L mutant hDAT
T2 sequence (Q01959 1-620 W84L): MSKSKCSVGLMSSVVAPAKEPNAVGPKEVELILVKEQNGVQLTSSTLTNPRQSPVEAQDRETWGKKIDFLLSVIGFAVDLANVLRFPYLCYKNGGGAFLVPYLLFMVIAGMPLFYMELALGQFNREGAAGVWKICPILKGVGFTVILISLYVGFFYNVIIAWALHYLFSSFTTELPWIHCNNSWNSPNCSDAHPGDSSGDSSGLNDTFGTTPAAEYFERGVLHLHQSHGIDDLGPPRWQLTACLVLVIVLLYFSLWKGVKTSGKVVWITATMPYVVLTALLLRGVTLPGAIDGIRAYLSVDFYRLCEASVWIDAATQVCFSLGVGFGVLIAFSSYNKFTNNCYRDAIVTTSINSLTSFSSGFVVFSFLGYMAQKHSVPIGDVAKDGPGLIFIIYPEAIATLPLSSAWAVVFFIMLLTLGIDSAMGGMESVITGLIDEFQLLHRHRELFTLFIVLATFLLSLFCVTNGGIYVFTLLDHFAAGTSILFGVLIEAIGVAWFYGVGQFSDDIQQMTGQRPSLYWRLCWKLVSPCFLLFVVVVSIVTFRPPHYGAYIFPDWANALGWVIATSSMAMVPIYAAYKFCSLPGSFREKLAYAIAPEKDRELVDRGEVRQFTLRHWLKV

hDAT D313N mutant = hDAT D313N mutant (Homo sapiens, UniProt Q01959, D313N); test: displacement of intact-cell [3H]CFT binding, D313N mutant hDAT
WT hDAT [2] = molecular target: T1, WT hDAT; settings: inhibition of [3H]DA uptake; ref Chen et al. (2004); cited from earlier work

Chain of wild-type hDAT (Q01959 whole entry): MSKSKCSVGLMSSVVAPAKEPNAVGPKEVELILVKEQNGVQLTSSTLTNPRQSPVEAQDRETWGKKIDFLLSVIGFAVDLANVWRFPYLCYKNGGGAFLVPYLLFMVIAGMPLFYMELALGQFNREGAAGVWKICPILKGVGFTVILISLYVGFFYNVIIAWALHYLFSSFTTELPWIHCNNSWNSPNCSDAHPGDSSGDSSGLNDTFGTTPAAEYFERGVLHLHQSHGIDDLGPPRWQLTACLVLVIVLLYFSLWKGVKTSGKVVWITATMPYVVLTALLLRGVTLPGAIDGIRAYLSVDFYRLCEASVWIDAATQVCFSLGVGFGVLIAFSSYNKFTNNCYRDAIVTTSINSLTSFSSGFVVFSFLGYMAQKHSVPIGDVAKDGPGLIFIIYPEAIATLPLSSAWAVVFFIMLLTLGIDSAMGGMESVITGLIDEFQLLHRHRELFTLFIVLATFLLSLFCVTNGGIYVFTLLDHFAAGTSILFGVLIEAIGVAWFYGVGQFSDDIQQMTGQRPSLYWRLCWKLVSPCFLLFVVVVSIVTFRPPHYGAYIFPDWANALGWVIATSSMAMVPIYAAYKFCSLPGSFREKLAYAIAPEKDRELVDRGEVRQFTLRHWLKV
T1 sequence (Q01959 whole entry): as above
Chain of hDAT D313N mutant (Q01959 whole entry D313N): as the sequence (Q01959 whole entry) above, with D313N counted along it

Row | Molecule | fold increase in binding affinity over monovalent DA (wild-type hDAT; [3H]CFT binding, WT hDAT) | Ki (wild-type hDAT; read-out: hDAT Binding Ki, WT) | Uptake Kapp, WT (WT hDAT [1]) | further results
1 | Oc1ccc(CCNCCCCCNCCc2ccc(O)c(O)c2)cc1O [Compound D-347] | 51 fold | 83.3 ± 8.74 nM | 171.5 ± 1.60 nM | –
2 | Oc1ccc(CCNCCCCCCNCCc2ccc(O)c(O)c2)cc1O [Compound D-361] | 61 fold | 69.7 ± 9.54 nM | 134.9 ± 17.5 nM | –
3 | Oc1ccc(CCNCCCCCCNCCc2ccccc2)cc1O [dopexamine, reference compound] | – | – | 187.5 ± 19.2 nM | Ki (wild-type hDAT; hDAT Binding Ki, WT): 96.9 ± 13.7 nM; Ki (hDAT W84L mutant): 147 ± 5.09 nM; Ki (hDAT D313N mutant): 192 ± 20.6 nM
4 | CCCNC(C)Cc1ccccc1 (stereo not drawn) [(dl)-propylamphetamine, N-propylamphetamine, reference compound] | – | 988 ± 67.6 nM | 2497 ± 138 nM | Kapp / Ki ratio (WT hDAT [1]): 1.8–2.5
5 | C[C@H](N)Cc1ccccc1 [(d)-amphetamine, reference compound] | – | – | 163.5 ± 4.57 nM | –
6 | COC(=O)[C@H]1[C@@H](c2ccc(F)cc2)C[C@@H]2CC[C@H]1N2C [β-CFT, 2β-carbomethoxy-3β-(4-fluorophenyl)-tropane] | – | – | – | Uptake Kapp, WT (WT hDAT [2]): 30.0 ± 4.0 ^b nM
7 | CC(Cc1ccccc1)NCCCCCCNCCc1ccccc1 [Compound D-370] | – | 97.8 ± 10 nM | 204.7 ± 9.75 nM | –
8 | CN[C@@H](C)Cc1ccccc1 [(d)-methamphetamine, reference compound] | – | 341 ± 42.7 nM | 141.7 ± 18.8 nM | –
9 | CC(NC(C)(C)C)C(=O)c1cccc(Cl)c1 (stereo not shown) [bupropion, reference compound] | – | – | 576.5 ± 29.1 nM | –
10 | CC(CCc1ccc(O)cc1)NCCc1ccc(O)c(O)c1 (stereo not drawn) [(dl)-dobutamine, dobutamine, reference compound] | 21 fold | – | 329.4 ± 16.5 nM | Ki (wild-type hDAT; hDAT Binding Ki, WT): 196 ± 14.3 nM; Ki (hDAT W84L mutant): 237 ± 23.9 nM; Ki (hDAT D313N mutant): 257 ± 26.5 nM
11 | hydroxydopentamine [Compound D-310] | – | 91.4 ± 12.5 nM | 155.3 ± 18.6 nM | –
12 | CC(Cc1ccccc1)NCCCCCCNCCc1ccc(O)c(O)c1 [Compound D-371] | 42 fold | 101 ± 13.4 nM | 244.5 ± 21.5 nM | fold increase in binding affinity compared to (d)-amphetamine (wild-type hDAT; [3H]CFT binding, WT hDAT): 6 fold
13 | CC(Cc1ccccc1)NCCc1ccc(O)c(O)c1 [Compound D-279, dopamphetamine] | – | 342 ± 5.38 nM | 605.3 ± 46.7 nM | fold increase in binding affinity compared to (d)-amphetamine (wild-type hDAT; [3H]CFT binding, WT hDAT): 2 fold
14 | COC(=O)[C@H]1[C@@H](OC(=O)c2ccccc2)C[C@@H]2CC[C@H]1N2C [cocaine] | – | – | – | Uptake Kapp, WT (WT hDAT [2]): 246.0 ± 25.0 ^b nM
15 | CCCCCCNCCc1ccc(O)c(O)c1 [Compound D-363, N-hexyldopamine] | 2.5 fold | 1740 ± 191 nM | 3075 ± 223 nM | fold weaker binding than the bivalent D-361 (wild-type hDAT; [3H]CFT binding, WT hDAT): 25 fold; fold loss of activity as inhibitor of [3H]DA uptake relative to dopamine (WT hDAT [1]; WT hDAT): > 7 fold; Kapp / Ki ratio (WT hDAT [1]): 1.8–2.5
16 | Oc1ccc(CCNCCCNCCc2ccc(O)c(O)c2)cc1O [Compound D-307] | 5 fold | 875 ± 71.4 nM | 1691 ± 197 nM | –
17 | CC(Cc1ccccc1)NCCCNCCc1ccc(O)c(O)c1 [Compound D-309] | 13 fold | 322 ± 15.3 nM | 740.8 ± 30.1 nM | –
18 | Oc1ccc(CCNCCCCCCCCNCCc2ccc(O)c(O)c2)cc1O [Compound D-362] | 82 fold | 51.9 nM | 105.7 ± 2.98 nM | –
19 | CN1[C@@H]2CC[C@H]1C[C@@H](OC(c1ccccc1)c1ccccc1)C2 [benztropine, reference compound] | – | – | 375.5 ± 6.35 nM | –
20 | CC(CCc1ccc(O)c(O)c1)NCCc1ccc(O)c(O)c1 [Compound D-278, hydroxydobutamine] | 74 fold | 58 ± 2.9 nM | 187.5 ± 30.2 nM | fold increase in affinity compared to dobutamine (wild-type hDAT; [3H]CFT binding, WT hDAT): 4 fold; Ki (wild-type hDAT; read-out: hDAT Binding Ki, WT, listed as hydroxydobutamine): ~58 nM
21 | NCCc1ccccc1 [β-phenethylamine, reference compound] | – | 3261 ± 21.5 nM | 1103 ± 206 nM | –
